# Experimental data reported in ChEMBL document CHEMBL4837239, “Identification of Thieno[3,2-d]pyrimidine Derivatives as Dual Inhibitors of Focal Adhesion Kinase and FMS-like Tyrosine Kinase 3” (J Med Chem, 2021).
# Activity calls are given as the source filed them. No cut-off for these calls is given here.
# Tests used:
# [1] = tested on: MDA-MB-231; assay: Antiproliferative activity against human MDA-MB-231 cells assessed as growth inhibition measured after 72 hrs by CellTiter-Glo assay; assay type: functional; conditions: Homo sapiens, MDA-MB-231
# [2] = Antiproliferative activity against human A375P cells assessed as growth inhibition measured after 72 hrs by CellTiter-Glo assay; assay type: functional; conditions: Homo sapiens, A375P
# [3] = Metabolic stability in human liver microsomes assessed as compound remaining at 1 uM measured after 1 hr; assay type: ADME, Microsome; conditions: read-out: Stabilty
# [4] = target: T1, CYP1A2 (Homo sapiens, UniProt P05177); assay: Inhibition of CYP1A2 (unknown origin) at 10 uM relative to control; assay type: ADME
# T1 sequence (P05177 whole entry): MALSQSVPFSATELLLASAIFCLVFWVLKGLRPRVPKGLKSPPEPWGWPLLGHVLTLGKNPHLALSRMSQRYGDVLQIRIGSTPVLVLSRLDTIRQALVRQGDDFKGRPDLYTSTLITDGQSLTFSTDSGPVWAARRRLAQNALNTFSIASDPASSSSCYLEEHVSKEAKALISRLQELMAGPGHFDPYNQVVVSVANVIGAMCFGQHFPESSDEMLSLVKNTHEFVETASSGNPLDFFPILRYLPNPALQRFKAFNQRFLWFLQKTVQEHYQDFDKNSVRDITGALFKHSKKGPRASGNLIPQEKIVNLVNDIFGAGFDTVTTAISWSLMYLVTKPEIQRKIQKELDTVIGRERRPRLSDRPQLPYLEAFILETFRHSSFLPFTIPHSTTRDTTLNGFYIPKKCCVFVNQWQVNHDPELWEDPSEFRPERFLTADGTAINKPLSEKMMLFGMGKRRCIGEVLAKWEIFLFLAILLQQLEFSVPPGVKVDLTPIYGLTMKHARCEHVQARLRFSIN
# [5] = target: CYP2C9 (Homo sapiens, UniProt P11712); assay: Inhibition of CYP2C9 (unknown origin) at 10 uM relative to control; assay type: ADME
# Chain of CYP2C9 (P11712 whole entry): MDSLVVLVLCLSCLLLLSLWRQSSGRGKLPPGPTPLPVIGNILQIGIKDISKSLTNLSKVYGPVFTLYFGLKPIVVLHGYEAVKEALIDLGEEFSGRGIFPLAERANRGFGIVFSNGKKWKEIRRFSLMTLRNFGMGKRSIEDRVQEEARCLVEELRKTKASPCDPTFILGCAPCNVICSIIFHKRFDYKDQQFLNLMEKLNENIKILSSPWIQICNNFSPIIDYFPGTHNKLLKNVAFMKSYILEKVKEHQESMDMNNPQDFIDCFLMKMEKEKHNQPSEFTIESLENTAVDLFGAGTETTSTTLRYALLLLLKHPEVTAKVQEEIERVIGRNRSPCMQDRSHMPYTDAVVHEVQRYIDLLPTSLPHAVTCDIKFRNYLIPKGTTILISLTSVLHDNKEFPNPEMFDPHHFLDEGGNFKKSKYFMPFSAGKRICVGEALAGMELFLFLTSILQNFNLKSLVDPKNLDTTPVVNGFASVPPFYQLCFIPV
# [6] = Inhibition of FLT3 D835Y (unknown origin); set-up: species or system Homo sapiens
# [7] = target: T2, Epithelial discoidin domain-containing receptor 1 (Homo sapiens, UniProt Q08345); assay: Inhibition of DDR1 (unknown origin)
# T2 sequence (Q08345 whole entry, the tested form may be a part): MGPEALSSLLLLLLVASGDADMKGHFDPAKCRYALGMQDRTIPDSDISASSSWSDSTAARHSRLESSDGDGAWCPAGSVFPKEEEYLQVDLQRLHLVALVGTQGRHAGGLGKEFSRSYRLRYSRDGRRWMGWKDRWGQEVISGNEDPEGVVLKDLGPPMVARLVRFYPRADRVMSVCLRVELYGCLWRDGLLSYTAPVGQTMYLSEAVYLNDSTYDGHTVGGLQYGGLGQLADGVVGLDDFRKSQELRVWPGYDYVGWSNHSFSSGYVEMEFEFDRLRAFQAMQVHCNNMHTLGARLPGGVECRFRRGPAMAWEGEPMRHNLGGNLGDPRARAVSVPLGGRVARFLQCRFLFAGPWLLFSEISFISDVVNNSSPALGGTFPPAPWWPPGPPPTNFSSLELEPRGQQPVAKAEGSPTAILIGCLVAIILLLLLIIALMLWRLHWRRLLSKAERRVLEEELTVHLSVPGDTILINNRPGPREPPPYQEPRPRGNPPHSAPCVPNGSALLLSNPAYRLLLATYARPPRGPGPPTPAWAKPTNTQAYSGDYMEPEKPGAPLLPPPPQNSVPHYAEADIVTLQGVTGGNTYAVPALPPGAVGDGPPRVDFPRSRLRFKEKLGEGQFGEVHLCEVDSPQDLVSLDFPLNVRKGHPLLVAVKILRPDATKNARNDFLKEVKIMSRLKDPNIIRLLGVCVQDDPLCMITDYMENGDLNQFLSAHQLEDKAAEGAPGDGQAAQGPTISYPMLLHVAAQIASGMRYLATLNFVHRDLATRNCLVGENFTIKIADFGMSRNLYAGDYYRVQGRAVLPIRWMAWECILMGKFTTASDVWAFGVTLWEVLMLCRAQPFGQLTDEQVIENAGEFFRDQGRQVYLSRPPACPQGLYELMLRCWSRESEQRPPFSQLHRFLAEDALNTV
# [8] = target: Proto-oncogene tyrosine-protein kinase receptor Ret (Homo sapiens, UniProt P07949); assay: Inhibition of RET (unknown origin)
# [9] = target: Proto-oncogene tyrosine-protein kinase ROS (Homo sapiens, UniProt P08922); assay: Inhibition of ROS (unknown origin)
# [10] = target: T3, Tyrosine-protein kinase Fyn (Homo sapiens, UniProt P06241); assay: Inhibition of Fyn (unknown origin)
# Target sequence in this assay (P06241 whole entry, the tested form may be a part): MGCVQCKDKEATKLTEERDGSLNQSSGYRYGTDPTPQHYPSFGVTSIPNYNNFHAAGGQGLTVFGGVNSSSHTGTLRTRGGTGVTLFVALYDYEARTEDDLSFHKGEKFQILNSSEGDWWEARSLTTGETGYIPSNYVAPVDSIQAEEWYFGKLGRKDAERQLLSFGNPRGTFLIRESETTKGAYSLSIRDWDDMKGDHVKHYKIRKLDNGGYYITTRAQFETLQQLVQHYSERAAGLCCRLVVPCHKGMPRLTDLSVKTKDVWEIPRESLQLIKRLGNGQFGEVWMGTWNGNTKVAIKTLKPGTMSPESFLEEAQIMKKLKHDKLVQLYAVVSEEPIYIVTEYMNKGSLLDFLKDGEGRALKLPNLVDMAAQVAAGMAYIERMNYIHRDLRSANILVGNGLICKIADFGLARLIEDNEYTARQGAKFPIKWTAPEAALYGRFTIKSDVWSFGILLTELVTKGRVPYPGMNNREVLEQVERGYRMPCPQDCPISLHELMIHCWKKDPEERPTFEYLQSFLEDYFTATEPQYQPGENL
# [11] = target: T2, Epithelial discoidin domain-containing receptor 1; assay: Inhibition of DDR1 (unknown origin) at 0.1 uM
# [12] = target: Tyrosine-protein kinase JAK1 (Homo sapiens, UniProt P23458); assay: Inhibition of JAK1 (unknown origin) at 0.1 uM
# Chain of Tyrosine-protein kinase JAK1 (P23458 whole entry): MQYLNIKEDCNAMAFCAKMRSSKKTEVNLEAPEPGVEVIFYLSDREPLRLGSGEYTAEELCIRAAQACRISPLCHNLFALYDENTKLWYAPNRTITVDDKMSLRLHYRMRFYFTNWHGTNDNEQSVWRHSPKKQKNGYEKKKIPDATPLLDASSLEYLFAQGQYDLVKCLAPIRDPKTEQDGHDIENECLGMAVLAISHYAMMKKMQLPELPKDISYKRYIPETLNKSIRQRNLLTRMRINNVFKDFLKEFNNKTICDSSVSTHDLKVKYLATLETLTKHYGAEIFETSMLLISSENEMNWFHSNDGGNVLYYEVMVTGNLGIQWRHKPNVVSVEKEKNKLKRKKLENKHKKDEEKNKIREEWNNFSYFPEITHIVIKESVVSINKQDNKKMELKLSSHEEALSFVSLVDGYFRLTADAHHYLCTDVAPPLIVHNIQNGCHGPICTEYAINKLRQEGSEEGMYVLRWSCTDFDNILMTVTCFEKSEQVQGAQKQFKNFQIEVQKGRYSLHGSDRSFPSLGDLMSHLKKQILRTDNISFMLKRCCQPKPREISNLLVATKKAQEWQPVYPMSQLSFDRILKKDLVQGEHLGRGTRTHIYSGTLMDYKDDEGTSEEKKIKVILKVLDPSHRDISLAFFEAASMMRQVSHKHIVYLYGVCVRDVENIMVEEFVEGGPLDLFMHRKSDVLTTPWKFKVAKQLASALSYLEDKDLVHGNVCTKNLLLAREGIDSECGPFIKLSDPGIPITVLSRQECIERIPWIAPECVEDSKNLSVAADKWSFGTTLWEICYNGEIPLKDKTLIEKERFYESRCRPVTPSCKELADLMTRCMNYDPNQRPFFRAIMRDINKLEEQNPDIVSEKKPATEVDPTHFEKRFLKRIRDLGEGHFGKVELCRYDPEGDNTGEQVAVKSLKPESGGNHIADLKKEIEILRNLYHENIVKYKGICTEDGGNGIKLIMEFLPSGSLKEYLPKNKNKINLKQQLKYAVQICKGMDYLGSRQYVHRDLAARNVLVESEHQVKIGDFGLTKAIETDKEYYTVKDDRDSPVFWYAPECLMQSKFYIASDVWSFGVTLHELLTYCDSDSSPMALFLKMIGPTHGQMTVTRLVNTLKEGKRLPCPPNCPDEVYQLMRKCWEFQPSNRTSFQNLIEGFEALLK
# [13] = target: Cyclin-dependent kinase 4 (Homo sapiens, UniProt P11802); assay: Inhibition of CDK4 (unknown origin) at 0.1 uM
# Chain of Cyclin-dependent kinase 4 (P11802 whole entry): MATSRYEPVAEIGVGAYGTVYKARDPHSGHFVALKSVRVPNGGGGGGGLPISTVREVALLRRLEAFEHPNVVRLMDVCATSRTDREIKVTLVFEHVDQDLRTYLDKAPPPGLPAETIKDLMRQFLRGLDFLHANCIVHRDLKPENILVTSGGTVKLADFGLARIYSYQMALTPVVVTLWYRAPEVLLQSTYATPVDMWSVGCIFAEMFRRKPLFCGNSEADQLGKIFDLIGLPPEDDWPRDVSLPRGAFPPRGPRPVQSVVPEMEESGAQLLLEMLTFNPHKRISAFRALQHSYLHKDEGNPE
# [14] = target: T3, Tyrosine-protein kinase Fyn; assay: Inhibition of Fyn (unknown origin) at 0.1 uM
# Target sequence in this assay (P06241 2-537 limits assumed): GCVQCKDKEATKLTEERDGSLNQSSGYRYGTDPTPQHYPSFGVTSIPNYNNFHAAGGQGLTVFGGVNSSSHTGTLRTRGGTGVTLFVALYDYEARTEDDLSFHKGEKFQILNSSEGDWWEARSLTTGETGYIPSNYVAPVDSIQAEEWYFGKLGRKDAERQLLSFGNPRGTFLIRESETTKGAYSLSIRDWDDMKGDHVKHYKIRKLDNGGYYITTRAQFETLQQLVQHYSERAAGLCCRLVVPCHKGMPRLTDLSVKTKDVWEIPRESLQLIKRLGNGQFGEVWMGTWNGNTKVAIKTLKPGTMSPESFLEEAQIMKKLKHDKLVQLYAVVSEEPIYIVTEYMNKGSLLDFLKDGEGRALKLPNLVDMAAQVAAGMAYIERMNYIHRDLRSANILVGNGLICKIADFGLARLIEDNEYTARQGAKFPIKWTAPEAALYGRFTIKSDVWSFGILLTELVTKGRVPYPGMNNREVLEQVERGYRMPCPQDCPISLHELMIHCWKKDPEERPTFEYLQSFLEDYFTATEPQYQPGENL
# [15] = tested on: BaF3; assay: Antiproliferative activity against mouse Ba/F3 cells harbouring FLT3 ITD D835Y mutant assessed as growth inhibition measured after 72 hrs by CellTiter-Glo assay; assay type: functional; conditions: Mus musculus, BaF3
# [16] = target: T4, Focal adhesion kinase 1 (Homo sapiens, UniProt Q05397); assay: Inhibition of FAK autophosphorylation at Y397 in human HCT-116 cells at 5 uM incubated for 24 hrs by Western blot analysis; assay type: cell-based
# T4 sequence (Q05397 2-1052 limits assumed): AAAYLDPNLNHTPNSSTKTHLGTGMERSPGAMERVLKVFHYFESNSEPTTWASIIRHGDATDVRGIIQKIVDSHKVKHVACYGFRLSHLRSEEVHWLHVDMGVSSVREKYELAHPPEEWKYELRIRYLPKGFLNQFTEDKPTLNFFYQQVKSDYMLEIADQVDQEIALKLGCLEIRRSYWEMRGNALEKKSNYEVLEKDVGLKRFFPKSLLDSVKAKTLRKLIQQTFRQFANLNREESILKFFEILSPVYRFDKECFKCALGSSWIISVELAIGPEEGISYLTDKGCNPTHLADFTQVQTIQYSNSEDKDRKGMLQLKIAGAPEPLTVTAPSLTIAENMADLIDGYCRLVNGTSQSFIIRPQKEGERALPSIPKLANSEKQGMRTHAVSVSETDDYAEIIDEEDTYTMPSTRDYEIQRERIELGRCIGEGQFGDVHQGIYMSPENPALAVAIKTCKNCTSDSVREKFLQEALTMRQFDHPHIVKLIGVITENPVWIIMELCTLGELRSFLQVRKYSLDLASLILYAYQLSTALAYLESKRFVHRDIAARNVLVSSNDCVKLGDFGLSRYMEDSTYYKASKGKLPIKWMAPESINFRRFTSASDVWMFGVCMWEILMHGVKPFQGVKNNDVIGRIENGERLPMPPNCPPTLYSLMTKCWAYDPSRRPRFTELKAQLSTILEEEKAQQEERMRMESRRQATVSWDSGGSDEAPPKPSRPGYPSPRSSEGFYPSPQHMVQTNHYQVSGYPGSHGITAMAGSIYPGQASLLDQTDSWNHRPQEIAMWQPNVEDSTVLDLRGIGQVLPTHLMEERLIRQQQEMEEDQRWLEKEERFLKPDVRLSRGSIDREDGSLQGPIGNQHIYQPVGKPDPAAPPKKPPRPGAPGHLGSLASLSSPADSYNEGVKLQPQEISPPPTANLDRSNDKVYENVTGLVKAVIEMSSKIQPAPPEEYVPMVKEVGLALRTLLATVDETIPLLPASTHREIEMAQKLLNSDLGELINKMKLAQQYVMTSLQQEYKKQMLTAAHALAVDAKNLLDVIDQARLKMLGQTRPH
# [17] = target: T4, Focal adhesion kinase 1; assay: Inhibition of FAK autophosphorylation at Y576 in human MDA-MB-231 cells at 5 uM incubated for 24 hrs by Western blot analysis; assay type: cell-based
# [18] = target: T4, Focal adhesion kinase 1; assay: Inhibition of FAK autophosphorylation at Y925 in human HCT-116 cells at 5 uM incubated for 24 hrs by Western blot analysis; assay type: cell-based
# [19] = tested on: HCT-116; assay: Induction of apoptosis in human HCT-116 cells assessed as cleaved caspase-3 at 0.1 to 10 uM incubated for 24 hrs by Western blot analysis; assay type: functional, cell-based; conditions: dose 0.1-10 µM
# [20] = tested on: MDA-MB-231; assay: Growth inhibition of anchorage-Independent human MDA-MB-231 cells assessed as decrease in number of colonies at 10 uM incubated for 72 hrs by MTT assay relative to control; assay type: functional
# [21] = tested on: MDA-MB-231; assay: In vivo antitumor activity against human MDA-MB-231 cells xenografted in Balb/c mouse assessed as tumor volume at 40 mg/kg, po once daily measured for 16 days (reference value: 600 mm^3); assay type: functional; conditions: time 16 day
# [22] = tested on: MDA-MB-231; assay: In vivo antitumor activity against human MDA-MB-231 cells xenografted in Balb/c mouse assessed as reduction in tumor mass at 40 to 70 mg/kg, po once daily measured for 16 days; assay type: functional, organism-based; conditions: dose 40-70 mg/kg, time 16.0 day
# [23] = tested on: MDA-MB-231; assay: In vivo antitumor activity against human MDA-MB-231 cells xenografted in Balb/c mouse assessed as reduction in tumor weight at 40 to 70 mg/kg, po once daily measured for 16 days; assay type: functional, organism-based; conditions: dose 40-70 mg/kg, time 16.0 day
# [24] = tested on: MDA-MB-231; assay: Antitumor activity against human MDA-MB-231 cells xenografted in Balb/c mouse assessed as decrease in ki67 at 40 to 70 mg/kg, po once daily measured for 16 days by Immunohistochemical analysis; assay type: functional, organism-based; conditions: dose 40-70 mg/kg, time 16.0 day
# [25] = Toxicity in Balb/c mouse xenografted with human MDA-MB-231 cells assessed as change in body weight at 40 to 70 mg/kg, po once daily measured for 16 days; assay type: organism-based; conditions: in vivo, 384 h, dose 40-70 mg/kg, time 16 day
# [26] = Antimigratory activity in human HCT-116 cells assessed as suppression of migration at 1 uM measured after 12 hrs by scratch wound healing assay; assay type: functional
# [27] = tested on: HCT-116; assay: Antiinvasive activity in human HCT-116 cells assessed as suppression of invasion at 1 uM measured after 12 hrs by trans well experiment; assay type: functional
# [28] = tested on: MDA-MB-231; assay: Induction of morphological changes in human MDA-MB-231 cells at 10 uM measured within 2 hrs by fluorescence analysis; assay type: functional, cell-based; conditions: time hrs <=2
# [29] = tested on: MDA-MB-231; assay: Antimetastatic activity against human MDA-MB-231 cells expressing firefly luciferase xenografted NSG orthotopic mouse model assessed as reduction in luminescence intensity at chest region at 70 mg/kg, po once daily measured for 2 weeks; assay type: functional, organism-based
# [30] = tested on: MDA-MB-231; assay: Antimetastatic activity against human MDA-MB-231 cells expressing firefly luciferase xenografted NSG orthotopic mouse model assessed as reduction in tumor weight at 70 mg/kg, po once daily measured for 2 weeks; assay type: functional, organism-based
# [31] = Toxicity in NSG orthotopic mouse xenografted with human MDA-MB-231 cells assessed as adverse effect at 40 to 70 mg/kg, po once daily measured for 2 weeks; assay type: organism-based; conditions: in vivo, 336 h, dose 40-70 mg/kg
# [32] = tested on: BaF3; assay: Inhibition of FLT3-ITD/[…] mutant (unknown origin) expressed in mouse Ba/F3 cells assessed as decrease in autophosphorylation at 10 nM by Western blot analysis; assay type: cell-based; conditions: Homo sapiens
# [33] = tested on: MV4-11; assay: In vivo antitumor activity against human MV4-11 cells xenografted in mouse assessed as tumor growth inhibition at 20 mg/kg, po; assay type: functional; conditions: MV4-11, po
# [34] = tested on: MV4-11; assay: In vivo antitumor activity against human MV4-11 cells xenografted in mouse assessed as tumor weight at 50 mg/kg, po relative to control; assay type: functional, organism-based
compound,measurement,setting,value
CCN1CCN(c2ccc(Nc3ncc4scc(-c5cccc(NS(C)(=O)=O)c5)c4n3)cc2)CC1,GI50,[1],470 nM
same,GI50,[2],370 nM
same,"remaining at 1 h, 1 µM",[3],80.2%
same,inhibition at 10 µM,[4],89.2%
same,inhibition at 10 µM,[5],93.6%
same,IC50,[6],< 0.5 nM
same,IC50,[7],4.4 nM
same,IC50,[8],2.9 nM
same,IC50,[9],22 nM
same,IC50,[10],7.7 nM
same,inhibition,[11],97%
same,inhibition,[12],93.8%
same,inhibition,[13],92.7%
same,inhibition,[14],92%
same,GI50,[15],5.7 nM
same,inhibition,[16],Active
same,inhibition,[17],Active
same,inhibition,[18],Active
same,Activity,[19],Active
same,inhibition at 10 µM,[20],75%
same,Activity,[21],400 mm3
same,Activity,[22],Active
same,Activity,[23],Active
same,Activity,[24],Active
same,Activity,[25],Non-Toxic
same,inhibition at 1 µM,[26],50%
same,inhibition at 1 µM,[27],50%
same,Activity,[28],Active
same,Activity,[29],Active
same,Activity,[30],Active
same,Activity,[31],Non-Toxic
same,inhibition,[32],100%
same,inhibition in vivo at 20 mg/kg,[33],65%
same,Activity,[34],Active
